Laboratory results reported in ChEMBL document CHEMBL3046407, “Toxicity of monoterpenes against larvae and adults of Colorado potato beetle, Leptinotarsa decemlineata Say (Coleoptera: Chrysomelidae)” (2007).

Key:
Assay type in all cases: functional
[1] = system: Leptinotarsa decemlineata; assay: Insecticidal activity against first-instar larval stage of Leptinotarsa decemlineata infested potato leaves assessed as mortality at 20 ul after 48 hr relative to control
[2] = system: Leptinotarsa decemlineata; assay: Insecticidal activity against adult Leptinotarsa decemlineata infested potato leaves assessed as mortality at 10 ul after 24 hr relative to control
[3] = system: Leptinotarsa decemlineata; assay: Insecticidal activity against third-instar larval stage of Leptinotarsa decemlineata infested potato leaves assessed as mortality at 10 ul after 96 hr (reference value: 3.3 +/- 3.3%)
[4] = system: Leptinotarsa decemlineata; assay: Insecticidal activity against adult Leptinotarsa decemlineata infested potato leaves assessed as mortality at 10 ul after 12 hr relative to control
[5] = system: Leptinotarsa decemlineata; assay: Insecticidal activity against first-instar larval stage of Leptinotarsa decemlineata infested potato leaves assessed as mortality at 20 ul after 96 hr relative to control
[6] = system: Leptinotarsa decemlineata; assay: Insecticidal activity against adult Leptinotarsa decemlineata infested potato leaves assessed as mortality at 20 ul after 24 hr relative to control
[7] = system: Leptinotarsa decemlineata; assay: Insecticidal activity against second-instar larval stage of Leptinotarsa decemlineata infested potato leaves assessed as mortality at 10 ul after 48 hr (reference value: 3.3 +/- 3.3%)
[8] = system: Leptinotarsa decemlineata; assay: Insecticidal activity against third-instar larval stage of Leptinotarsa decemlineata infested potato leaves assessed as mortality at 10 ul after 12 hr relative to control
[9] = system: Leptinotarsa decemlineata; assay: Insecticidal activity against second-instar larval stage of Leptinotarsa decemlineata infested potato leaves assessed as mortality at 20 ul after 48 hr (reference value: 3.3 +/- 3.3%)
[10] = system: Leptinotarsa decemlineata; assay: Insecticidal activity against adult Leptinotarsa decemlineata infested potato leaves assessed as mortality at 10 ul after 96 hr relative to control
[11] = system: Leptinotarsa decemlineata; assay: Insecticidal activity against first-instar larval stage of Leptinotarsa decemlineata infested potato leaves assessed as mortality at 20 ul after 24 hr relative to control
[12] = system: Leptinotarsa decemlineata; assay: Insecticidal activity against third-instar larval stage of Leptinotarsa decemlineata infested potato leaves assessed as mortality at 20 ul after 24 hr relative to control
[13] = system: Leptinotarsa decemlineata; assay: Insecticidal activity against second-instar larval stage of Leptinotarsa decemlineata infested potato leaves assessed as mortality at 20 ul after 96 hr (reference value: 3.3 +/- 3.3%)
[14] = system: Leptinotarsa decemlineata; assay: Insecticidal activity against third-instar larval stage of Leptinotarsa decemlineata infested potato leaves assessed as mortality at 20 ul after 12 hr relative to control
[15] = system: Leptinotarsa decemlineata; assay: Insecticidal activity against first-instar larval stage of Leptinotarsa decemlineata infested potato leaves assessed as mortality at 20 ul after 12 hr relative to control
[16] = system: Leptinotarsa decemlineata; assay: Insecticidal activity against second-instar larval stage of Leptinotarsa decemlineata infested potato leaves assessed as mortality at 10 ul after 24 hr (reference value: 3.3 +/- 3.3%)
[17] = system: Leptinotarsa decemlineata; assay: Insecticidal activity against third-instar larval stage of Leptinotarsa decemlineata infested potato leaves assessed as mortality at 10 ul after 24 hr relative to control
[18] = system: Leptinotarsa decemlineata; assay: Insecticidal activity against adult Leptinotarsa decemlineata infested potato leaves assessed as mortality at 20 ul after 12 hr relative to control
[19] = system: Leptinotarsa decemlineata; assay: Insecticidal activity against second-instar larval stage of Leptinotarsa decemlineata infested potato leaves assessed as mortality at 10 ul after 96 hr (reference value: 3.3 +/- 3.3%)
[20] = system: Leptinotarsa decemlineata; assay: Insecticidal activity against third-instar larval stage of Leptinotarsa decemlineata infested potato leaves assessed as mortality at 20 ul after 48 hr (reference value: 3.3 +/- 3.3%)
[21] = system: Leptinotarsa decemlineata; assay: Insecticidal activity against second-instar larval stage of Leptinotarsa decemlineata infested potato leaves assessed as mortality at 20 ul after 24 hr (reference value: 3.3 +/- 3.3%)
[22] = system: Leptinotarsa decemlineata; assay: Insecticidal activity against adult Leptinotarsa decemlineata infested potato leaves assessed as mortality at 20 ul after 96 hr relative to control
[23] = system: Leptinotarsa decemlineata; assay: Insecticidal activity against first-instar larval stage of Leptinotarsa decemlineata infested potato leaves assessed as mortality at 10 ul after 24 hr relative to control
[24] = system: Leptinotarsa decemlineata; assay: Insecticidal activity against second-instar larval stage of Leptinotarsa decemlineata infested potato leaves assessed as mortality at 10 ul after 12 hr relative to control
[25] = system: Leptinotarsa decemlineata; assay: Insecticidal activity against first-instar larval stage of Leptinotarsa decemlineata infested potato leaves assessed as mortality at 10 ul after 48 hr relative to control
[26] = system: Leptinotarsa decemlineata; assay: Insecticidal activity against third-instar larval stage of Leptinotarsa decemlineata infested potato leaves assessed as mortality at 10 ul after 48 hr (reference value: 3.3 +/- 3.3%)
[27] = system: Leptinotarsa decemlineata; assay: Insecticidal activity against first-instar larval stage of Leptinotarsa decemlineata infested potato leaves assessed as mortality at 10 ul after 12 hr relative to control
[28] = system: Leptinotarsa decemlineata; assay: Insecticidal activity against third-instar larval stage of Leptinotarsa decemlineata infested potato leaves assessed as mortality at 20 ul after 96 hr (reference value: 3.3 +/- 3.3%)
[29] = system: Leptinotarsa decemlineata; assay: Insecticidal activity against adult Leptinotarsa decemlineata infested potato leaves assessed as mortality at 10 ul after 48 hr relative to control
[30] = system: Leptinotarsa decemlineata; assay: Insecticidal activity against first-instar larval stage of Leptinotarsa decemlineata infested potato leaves assessed as mortality at 10 ul after 96 hr relative to control
[31] = system: Leptinotarsa decemlineata; assay: Insecticidal activity against second-instar larval stage of Leptinotarsa decemlineata infested potato leaves assessed as mortality at 20 ul after 12 hr relative to control
[32] = system: Leptinotarsa decemlineata; assay: Insecticidal activity against adult Leptinotarsa decemlineata infested potato leaves assessed as mortality at 20 ul after 48 hr relative to control
Sitophilus granarius = assay: Insecticidal activity against Sitophilus granarius (granary weevil) assessed as mortality

`CC12CCC(CC1)C(C)(C)O2` [EUCALYPTOL] was tested, and the mortality [1] was 100%, the mortality [2] was 100% and the mortality [3] was 76.7%. It also gave a mortality [4] of 100%, a mortality [5] of 100% and a mortality [6] of 100%. For the same molecule, the mortality [7] was 100%, the mortality [8] was 40% and the mortality [9] was 100%. The mortality [10] was 100%, the mortality [11] was 100% and the mortality [12] was 73.3%. It also gave a mortality [13] of 100%, a mortality [14] of 56.7% and a mortality [15] of 46.7%. For the same molecule, the mortality [16] was 100%, the mortality [17] was 50% and the mortality [18] was 83.3%. The mortality [19] was 100%, the mortality [20] was 80% and the mortality [21] was 100%. For the same molecule, the mortality [22] was 100%, the mortality [23] was 66.7% and the mortality [24] was 43.3%. It also gave a mortality [25] of 83.3%, a mortality [26] of 63.3% and a mortality [27] of 26.7%. It also gave a mortality [28] of 86.7%, a mortality [29] of 100% and a mortality [30] of 100%. For the same molecule, the mortality [31] was 83.3%, the mortality [32] was 100% and the mortality (Sitophilus granarius) was 90%.
In the case of `CC(C)=C1CC[C@@H](C)CC1=O` [PULEGONE], the mortality (Sitophilus granarius) is reported as 90%.
